Test results from PMC7693203 (Epilepsia, 2020).
Marks after values point to notes of the source that are not given here.

Legend:
[1] = biological target: CYP2C19 (Homo sapiens, UniProt P33261)
[2] = cited from earlier work
[3] = test system: UGT2B7; conditions: in vitro; result in words; cited from earlier work
[4] = trial 1428, patients with epilepsy, N = 16
[5] = trial 1428, patients with epilepsy, N = 20

Sequence of CYP2C19 (P33261 whole entry): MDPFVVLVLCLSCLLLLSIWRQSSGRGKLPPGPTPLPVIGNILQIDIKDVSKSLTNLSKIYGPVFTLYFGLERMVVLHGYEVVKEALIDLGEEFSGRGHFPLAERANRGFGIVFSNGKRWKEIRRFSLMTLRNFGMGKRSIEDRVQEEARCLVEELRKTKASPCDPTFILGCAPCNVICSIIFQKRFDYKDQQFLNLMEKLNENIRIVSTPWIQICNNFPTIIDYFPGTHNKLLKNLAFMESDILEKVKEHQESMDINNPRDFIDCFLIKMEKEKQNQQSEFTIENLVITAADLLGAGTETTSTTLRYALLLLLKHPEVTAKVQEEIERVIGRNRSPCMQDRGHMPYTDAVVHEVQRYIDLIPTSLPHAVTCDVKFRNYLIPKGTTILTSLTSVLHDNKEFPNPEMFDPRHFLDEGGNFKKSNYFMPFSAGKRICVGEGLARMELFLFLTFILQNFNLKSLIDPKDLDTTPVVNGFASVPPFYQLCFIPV

## C=C(C)[C@@H]1CCC(C)=C[C@H]1c1c(O)cc(CCCCC)cc1O [CBD, cannabidiol]
[1]; result in words
  clearance with concomitant FLU: not affected
  t ½ with concomitant FLU: not affected
[1]; single dose of CBD
  increase in AUCtau with concomitant steady‐state FLU: 21%
  increase in C max with concomitant steady‐state FLU: 24%
[2]; trial 1428, of 20
  patients with epilepsy reporting AEs: 75%
[2]; [4]
  Abdominal pain: 1 (6) n (%)
  Chromaturia: 0 (0) n (%)
  Diarrhea: 6 (38) n (%)
  Fatigue: 1 (6) n (%)
  Flatulence: 0 (0) n (%)
  Headache: 1 (6) n (%)
  Hepatic enzyme increased: 0 (0) ^d n (%)
  Nausea: 3 (19) n (%)
  Somnolence: 2 (13) n (%)
[2]; [5]
  AEs leading to withdrawal: 1 (5) n (%)
  Death: 0 (0) n (%)
  Patient with at least 1 AE: 15 (75) n (%)
  Serious AEs: 1 (5) n (%)
  Severe AEs: 1 (5) n (%)
[3]
  inhibition of UGT2B7: potently inhibits
